Data reported in patent US20080103212A1, “Treatment of fruit in storage facility with solid derived diphenylamine anti scald agent” (priority 2006, published 2008).

Key:
[1] = system: Granny Smith and Red Delicious apples; assay: Scald and decay observation of DPA-fogged apples in cold air storage (Example 1); type: in vivo
Description: DPA was applied to Granny Smith and Red Delicious apples at a research facility. Solid, technical grade (99.5%) DPA was melted and applied to the apples in a storage facility as an aerosol using a commercial thermal fogger equipment, provided by Custom Chemical of Warden Wash., as described above. The apples were loaded into 20 bins, of 900 pounds each, of each variety and stacked in a three by three arrangement. The bins were stacked: five high in all of the back rows, in a 5-4-5 high arrangement in the center row and in a 4-3-4 arrangement in the front row. DPA was applied at a rate of 15 grams per ton. This represents a 50% excess to account for any loss in void spaces. The thermal fogging equipment was placed in the hallway of the storage facility with two 10 foot lengths of flex pipe attached to a porthole in the door of the sealed storage room. Fumigating started and reached optimum saturation in 15 minutes. The porthole was then sealed and the room was left alone for 16 hours. Application of the aerosol DPA began with the storage facility fans off. The fans were turned on after 10 minutes of aerosol DPA application and run at ambient temperatures for 12-16 hours. The morning after application the room was unsealed the apples, bins, storage walls and fan blades were checked for anomalies such as DAP sublimation as crystals and possible phytotoxicity on the fruit. […] After the initial inspection the bins were arranged outside of the building so samples could be taken. Each bin was marked as to its location in the room and samples were marked with those same ID codes. Samples were taken from the top of each bin and also by digging into the center of the bin. Each bin was effectively sampled two times. These samples were tested for DPA residual by gas chromatography. The bins were than transferred to a cold air storage facility and observed for five months. Periodically samples were collected for DPA residue, scald and decay analysis as describe below. After 6 weeks additional samples were taken and tested for DPA residual by gas chromatography. These samples were taken like the first set, eight apples from the top of the bin and then digging into the center for eight apples. After two months in common storage four bins were set out for evaluation, two Granny Smith and two Red Delicious. […] The next samples were taken one month later. […] One month later samples were taken in the same fashion as before, top and middle of the bins. Because a fungicide was not used, penicillium rot was showing in about 8% of the Red Delicious samples. The Granny Smith samples were starting to show some decay, roughly 1⁄2 percent. […] The next to last sample was taken about 6 weeks later. Scald was not a problem. […] The positive impact of the treatment was especially evident in the Granny Smith apples which are more susceptible to scald. The decay incidences were unchanged. As stated in the earlier, there was generally a slightly higher decay rate in Red Delicious compared to prior art drench type applications, which typically use one or a combination of two fungicides. The decay in this test was attributed to the lack of fungicide use in this trial.

[2] = system: Granny Smith and Red Delicious apples; assay: Inspection for phytotoxicity on the fruit the morning after DPA aerosol application (Example 1); type: in vivo; details: 15 grams per ton DPA aerosol
Description: DPA was applied to Granny Smith and Red Delicious apples at a research facility. Solid, technical grade (99.5%) DPA was melted and applied to the apples in a storage facility as an aerosol using a commercial thermal fogger equipment, provided by Custom Chemical of Warden Wash., as described above. The apples were loaded into 20 bins, of 900 pounds each, of each variety and stacked in a three by three arrangement. The bins were stacked: five high in all of the back rows, in a 5-4-5 high arrangement in the center row and in a 4-3-4 arrangement in the front row. DPA was applied at a rate of 15 grams per ton. This represents a 50% excess to account for any loss in void spaces. The thermal fogging equipment was placed in the hallway of the storage facility with two 10 foot lengths of flex pipe attached to a porthole in the door of the sealed storage room. Fumigating started and reached optimum saturation in 15 minutes. The porthole was then sealed and the room was left alone for 16 hours. Application of the aerosol DPA began with the storage facility fans off. The fans were turned on after 10 minutes of aerosol DPA application and run at ambient temperatures for 12-16 hours. The morning after application the room was unsealed the apples, bins, storage walls and fan blades were checked for anomalies such as DAP sublimation as crystals and possible phytotoxicity on the fruit.

For `c1ccc(Nc2ccccc2)cc1` [DPA, diphenylamine], which Scald ([1]; after two months in common storage, two Granny Smith and two Red Delicious bins) is on record?
Its Scald is “No Scald was apparent in any bin”.

What about the Scald ([1]; final assessment, approximately two weeks after the next to last sample) of the same molecule?
The Scald was “no additional scald”.

And the Scald ([1]; next to last sample, about 6 weeks later, all bins)?
The Scald was “no scald found in any bin”.

What about the Scald ([1]; one month after the two-month evaluation, both varieties) of the same molecule?
Its Scald is “Scald was not showing in either variety”.

What about the Scald ([1]; two months after the two-month evaluation, both varieties) of the same molecule?
The Scald was “Scald was not apparent in either variety”.

And the “possible phytotoxicity on the fruit” value [2]?
The value was “None was found”.
